Results on 39 compounds are retold here after patent US9187424B1, “Aryl dihydropyridinones and piperidinone MGAT2 inhibitors” (Bristol-Myers Squibb Company, priority 2011, dated 2015).

For this assay, the target named is Human MGAT-2 (Homo sapiens (Human), UniProt Q3SYC2). The assay can be described thus: MGAT LCMS Assay (human MGAT-2).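 Also: diolein product quantified by LC/MS with positive APCI, expressed as peak area ratio versus an internal standard, and this ratio used to derive IC50.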 Format: biochemical. To be noted: human MGAT-2 membranes expressed in Sf9 cells; 2-oleoylglycerol and oleoyl-Coenzyme A; read-out: h-MGAT2 IC50 (nM) LCMS Assay.
Chain of Human MGAT-2 (Q3SYC2 whole entry): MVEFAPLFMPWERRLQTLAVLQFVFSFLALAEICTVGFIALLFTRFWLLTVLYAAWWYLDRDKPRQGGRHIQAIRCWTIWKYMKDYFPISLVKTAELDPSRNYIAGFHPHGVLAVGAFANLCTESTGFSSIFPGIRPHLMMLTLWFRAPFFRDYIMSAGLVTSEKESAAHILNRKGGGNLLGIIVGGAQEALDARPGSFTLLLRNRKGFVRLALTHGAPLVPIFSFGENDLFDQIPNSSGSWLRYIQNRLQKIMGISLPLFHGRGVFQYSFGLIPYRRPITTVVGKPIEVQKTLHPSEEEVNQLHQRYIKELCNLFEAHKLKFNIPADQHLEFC

Broadly, the IC50 is the point on the concentration scale where inhibition reaches its midpoint. In the case of `CCCCCCCc1cnc(C2(C(F)(F)F)CC(c3ccc(C)cc3)=C(c3nn[nH]n3)C(=O)N2)s1` (stereo not drawn) [Example 292], the IC50 was found to be 304 nM.

In the case of `Cc1ccc(C2=C(NC(=O)n3ncnn3)C(=O)NC(c3ccc(OCCCC(F)(F)F)cc3)(C(F)(F)F)C2)cc1` (stereo not drawn) [Example 192], the half-maximal inhibitory concentration (IC50) came out at 433 nM. In the case of `COOCNc1ccc(C2=C(C#N)C(=O)NC(c3ccc(OCCCC(F)(F)F)cc3)(C(F)(F)F)C2)cc1` (stereo not drawn) [Example 257] it was 421 nM; in that of `Cc1ccc(C2=C(C#N)C(=O)NC(c3ccc(OCCCC(F)(F)F)cc3)(C(F)(F)F)C2)cc1F` (stereo not drawn) [Example 256], 22 nM. In the case of `Cc1ccc(C2=C(C(=O)Nc3ccc(-c4nn[nH]n4)cc3)C(=O)NC(c3ccc(OCCC(F)(F)F)cc3)(C(F)(F)F)C2(F)F)cc1` (stereo not drawn) [Example 134], the half-maximal inhibitory concentration (IC50) came out at 168 nM. As for `O=C1NC(c2ccc(OCCCC(F)(F)F)cc2)(C(F)(F)F)CC(c2ccc3c(c2)OCO3)=C1c1nn[nH]n1` (stereo not drawn) [Example 211], the concentration for half-maximal inhibition (IC50) amounted to 97 nM. Turning to `Cc1ccc(C2=C(NC(=O)c3nnn[nH]3)C(=O)NC(c3ccc(OCCCC(F)(F)F)cc3)(C(F)(F)F)C2)cc1` (stereo not drawn) [Example 310], the half-inhibitory concentration (IC50) was determined as 4 nM.

For the compound `Cc1ccc(C2=C(C(=O)Nc3cc(C)no3)C(=O)NC(c3ccc(OCCCC(F)(F)F)cc3)(C(F)(F)F)C2)cc1` (stereo not drawn) [Example 281], the concentration for half-maximal inhibition (IC50) stood at 3 nM. For the compound `O=C1NC(c2ccc(OCCCC(F)(F)F)cc2)(C(F)(F)F)CC(c2cccc(Cl)c2)=C1c1nn[nH]n1` (stereo not drawn) [Example 99], the half-inhibitory concentration (IC50) was 795 nM. In the case of `O=C1NC(c2ccc(OCCCCCC(F)(F)F)cc2F)(C(F)(F)F)CC(c2ccc3ccccc3c2)=C1c1nn[nH]n1` (stereo not drawn) [Example 276] it was 2 nM; in that of `COc1ccc(C2=C[C@@](c3ccc(OCCCC(F)(F)F)cc3)(C(F)(F)F)NC(=O)C2(F)C#N)cc1` (stereo in doubt) [Example 15-4, 3-Fluoro-4-(4-methoxyphenyl)-2-oxo-6-(4-(4,4,4-trifluorobutoxyl)phenyl)-6-(trifluoromethyl)-1,2,3,6-tetrahydropyridine-3-carbonitrile], 2050 nM; in that of `CCCCCCCn1ccc(C2(C)CC(c3ccc(C)cc3)=C(C#N)C(=O)N2)n1` (stereo not drawn) [Example 109, 6-(1-Heptyl-1H-pyrazol-3-yl)-6-methyl-2-oxo-4-p-tolyl-1,2,5,6-tetrahydropyridine-3-carbonitrile], 39 nM. The value for `Cc1ccc(C2=C(n3cnnn3)C(=O)NC(c3ccc(OCCCC(F)(F)F)cc3)(C(F)(F)F)C2(F)F)cc1` (stereo not drawn) [Example 159] was 16700 nM. The value for `Cc1ccc(C2=C(N)C(=O)N[C@@](c3ccc(OCCCC(F)(F)F)cc3)(C(F)(F)F)C2)cc1` [Example 104, (S)-3-Amino-4-p-tolyl-6-(4-(4,4,4-trifluorobutoxy)phenyl)-6-(trifluoromethyl)-5,6-dihydropyridin-2(1H)-one] was 103 nM; that for `O=C1NC(c2ccc(OCCCC(F)(F)F)cc2)(C(F)(F)F)CC(c2ccc(OC(F)F)cc2)=C1c1nn[nH]n1` (stereo not drawn) [Example 205] was 13 nM. Consider `O=C1NC(c2ccc(OCCCC(F)(F)F)cc2)(C(F)(F)F)CC(c2ccc(CC(F)(F)F)cc2)=C1c1nn[nH]n1` (stereo not drawn) [Example 271], for which the IC50 came out at 12 nM. In the case of `Cc1cc(C2=C(C#N)C(=O)NC(c3ccc(OCCCC(F)(F)F)cc3)(C(F)(F)F)C2)ccc1Cl` (stereo not drawn) [Example 221] it was 152 nM; in that of `O=C1NC(c2ccc(OCCCC(F)(F)F)cc2)(C(F)(F)F)CC(c2ccc(OC(F)F)cc2)=C1c1nn[nH]n1` (stereo not drawn) [Example 245], 46 nM.

Turning to `CCCCOc1ccc(C2(C)CC(c3ccc(C)cc3)=C(C#N)C(=O)N2)cc1` (stereo not drawn) [Example 107, 6-(4-Butoxyphenyl)-6-methyl-2-oxo-4-p-tolyl-1,2,5,6-tetrahydropyridine-3-carbonitrile], the IC50 was found to be 93 nM.

As to `COc1ccc(C(=O)NC2=C(c3ccc(C)cc3)CC(c3cnn(CCCCCC(F)(F)F)c3)(C(F)(F)F)NC2=O)cc1` (stereo not drawn) [Example 228], the 50% inhibitory concentration (IC50) was 7 nM. With `COc1ccc(C2=C(c3nn[nH]n3)C(=O)NC(c3ccc(OCCCCCC(F)(F)F)cc3)(C(F)(F)F)C2)cc1` (stereo not drawn) [Example 247], the half-inhibitory concentration (IC50) worked out at 51 nM. `O=C1NC(c2ccc(OCCCC(F)(F)F)cc2)(C(F)(F)F)CC(c2ccc(C3CC3)cc2)=C1c1nn[nH]n1` (stereo not drawn) [Example 235]: the 50% inhibitory concentration (IC50) is 22 nM. In the case of `Cc1ccc(C2=C(c3nn[nH]n3)C(=O)NC(c3ccc(C#CC4CCCCC4)cc3)(C(F)(F)F)C2)cc1` (stereo not drawn) [Example 291] it was 178 nM. As for `CCCCCCCC#CC1(C(F)(F)F)CC(c2ccc(C)cc2)=C(c2cn[nH]n2)C(=O)N1` (stereo not drawn) [Example 195], the IC50 turned out to be 33 nM. For `Cc1ccc(C2=C(C(=O)Nc3cc(C)[nH]n3)C(=O)NC(c3ccc(OCCC(F)(F)F)cc3)(C(F)(F)F)C2)cc1` (stereo not drawn) [Example 131], the IC50 is 1050 nM. The value for `Cc1ccc(C2=C(C(=O)Nc3nnc(C(F)(F)F)o3)C(=O)NC(c3ccc(OCCC(F)(F)F)cc3)(C(F)(F)F)C2)cc1` (stereo not drawn) [Example 136] was 328 nM; that for `Cc1ccc(C2=C(NC(=O)c3cnco3)C(=O)NC(c3ccc(OCCCC(F)(F)F)cc3)(C(F)(F)F)C2)cc1` (stereo not drawn) [Example 152] was 252 nM; that for `Cc1ccc(C2=C(NC(=O)c3cnccn3)C(=O)NC(c3ccc(OCCCC(F)(F)F)cc3)(C(F)(F)F)C2)cc1` (stereo not drawn) [Example 153] was 247 nM. In the case of `COc1ccc(C2=C(C#N)C(=O)NC(c3ccc(OCCCC(F)(F)F)cc3)(C(F)(F)F)C2)cc1C` (stereo not drawn) [Example 215] it was 11 nM; in that of `O=C1NC(c2ccc(OCCCC(F)(F)F)cc2)(C(F)(F)F)CC(c2ccc(OC(F)F)cc2)=C1NC(=O)c1ccncc1` (stereo not drawn) [Example 275], 2 nM. For the compound `COc1ccc(C2=C[C@](c3ccc(OCCCC(F)(F)F)cc3)(C(F)(F)F)NC(=O)C2(F)C#N)cc1` (single isomer, unassigned) [Example 15-2, 3-Fluoro-4-(4-methoxyphenyl)-2-oxo-6-(4-(4,4,4-trifluorobutoxyl)phenyl)-6-(trifluoromethyl)-1,2,3,6-tetrahydropyridine-3-carbonitrile], the IC50 amounted to 431 nM.

Take `Cc1ccc(C2=C(c3nn[nH]n3)C(=O)NC(c3cccc(OCCCC(F)(F)F)c3)(C(F)(F)F)C2)cc1` (stereo not drawn) [Example 267]: the 50% inhibitory concentration (IC50) was 796 nM. In the case of `Cc1ccc(C2=C(c3nn[nH]n3)C(=O)NC(c3ccc(C#CCOCc4ccccc4)cc3)(C(F)(F)F)C2)cc1` (stereo not drawn) [Example 290] it was 56 nM. In the case of `COc1ccc(C2=C(C#N)C(=O)NC(c3ccc(OCCCC(F)(F)F)cc3)(C(F)(F)F)C2)cc1Cl` (stereo not drawn) [Example 223] it was 112 nM.

Take `CCOc1ccc(C2=C(c3nn[nH]n3)C(=O)NC(c3ccc(OCCCCCC(F)(F)F)cc3F)(C(F)(F)F)C2)cc1` (stereo not drawn) [Example 283]: the IC50 was 3 nM. For the compound `COc1ccc(C2=C(C#N)C(=O)NC(c3ccc(OCCCC(F)(F)F)cc3)(C(F)(F)F)C2)cc1Cl` (stereo not drawn) [Example 258], the IC50 was determined as 1150 nM. For the compound `O=C1NC(c2ccc(OCCCC(F)(F)F)cc2)(C(F)(F)F)CC(c2ccc3ccccc3c2)=C1c1nn[nH]n1` (stereo not drawn) [Example 207], the IC50 was found to be 11 nM. Consider `Cc1cccc(C2=C(c3nn[nH]n3)C(=O)NC(c3ccc(OCCCC(F)(F)F)cc3)(C(F)(F)F)C2)c1` (stereo not drawn) [Example 96], for which the concentration for half-maximal inhibition (IC50) turned out to be 1430 nM. In the case of `Cc1ccc(C2=C(C(=O)Nc3cccc(C)c3)C(=O)NC(c3ccc(OCCC(F)(F)F)cc3)(C(F)(F)F)C2)cc1` (stereo not drawn) [Example 128] it was 328 nM.
